Measurements published in patent US8440794B2, “Peptide sequences, their branched form and use thereof for antimicrobial applications” (Universita' Degli Studi di Siena, priority 2008, dated 2013).
Converted amounts (≈) assume the structure as drawn. Where a SMILES comes first, the peptide text is derived from it. Bridges are numbered along the chain shown (N, C = ends). Roman numbers before positions name the chains, in order. [ ]: non-standard residue; d: D form. βAla = NCCC(=O)O

Key:
A. baumannii RUH 875 = type: cell-based, Acinetobacter baumannii; conditions: RUH 875, 24 h
Experimental: (§1) M33, […], M35 and M36 MICs were determined against strains of several bacterial species, including Gram-negative pathogens and also Staphylococcus aureus (Table 1). MICs in the micromolar range were observed against several Gram-negatives including Pseudomonas aeruginosa, Acinetobacter baumannii and most Enterobacteriaceae, with the exception of Proteus mirabilis, Serratia marcescens and Burkholderia cepacia. Activity of peptides was retained against MDR strains with various resistance mechanisms (such as extended-spectrum beta-lactamases and carbapenemases), including MDR P. aeruginosa strains from CF patients. Antimicrobial profile of M33, […] and potency were overall similar to those of polymyxin B, although M33, M34, M35 and M36 also appeared to have some activity against S. aureus (Table 1).

A. baumannii MR157 = type: cell-based, Acinetobacter baumannii; conditions: MR157, 24 h
Experimental: as §1

E. coli W03BG0025 = type: cell-based, Escherichia coli; conditions: W03BG0025, 24 h
Experimental: as §1

K pneumoniae 7086042 = type: cell-based, Klebsiella pneumoniae; conditions: 7086042, 24 h
Experimental: as §1

K pneumoniae FIPP-1 = type: cell-based, Klebsiella pneumoniae; conditions: FIPP-1, 24 h
Experimental: as §1

K pneumoniae C8-27 = type: cell-based, Klebsiella pneumoniae; conditions: C8-27, 24 h
Experimental: as §1

P. aeruginosa EF-OBG6-1 = type: cell-based, Pseudomonas aeruginosa; conditions: EF-OBG6-1, 24 h
Experimental: as §1

[1] = system: P. aeruginosa SC-VMr04-05; type: cell-based, Pseudomonas aeruginosa; conditions: SC-VMr04-05, 24 h
Experimental: as §1

P. aeruginosa AV65 = type: cell-based, Pseudomonas aeruginosa; conditions: AV65, 24 h
Experimental: as §1

[2] = system: P. aeruginosa SC-BGr12-02; type: cell-based, Pseudomonas aeruginosa; conditions: SC-BGr12-02, 24 h
Experimental: as §1

[3] = system: P. aeruginosa SC-CNm03-07; type: cell-based, Pseudomonas aeruginosa; conditions: SC-CNm03-07, 24 h
Experimental: as §1

[4] = system: P. aeruginosa SC-MDm03-02; type: cell-based, Pseudomonas aeruginosa; conditions: SC-MDm03-02, 24 h
Experimental: as §1

[5] = system: P. aeruginosa SC-GMm03-05; type: cell-based, Pseudomonas aeruginosa; conditions: SC-GMm03-05, 24 h
Experimental: as §1

P. aeruginosa VR-143/97 = type: cell-based, Pseudomonas aeruginosa; conditions: VR-143/97, 24 h
Experimental: as §1

[6] = system: P. aeruginosa SC-DMr05-04; type: cell-based, Pseudomonas aeruginosa; conditions: SC-DMr05-04, 24 h
Experimental: as §1

P. aeruginosa PAO-1 = type: cell-based, Pseudomonas aeruginosa; conditions: PAO-1, 24 h
Experimental: as §1

[7] = system: P. aeruginosa SC-MDr03-06; type: cell-based, Pseudomonas aeruginosa; conditions: SC-MDr03-06, 24 h
Experimental: as §1

human erythrocytes = type: cell-based
Experimental: FIG. 2. Percentage of haemolysis provoked by tetra-branched M33 peptide incubated 3 or 24 hours with human red blood cells.
Haemolysis of fresh human erythrocytes was determined using the method of Parpart, summarized as follows. A calibration curve was constructed by suspending fresh human erythrocytes in phosphate buffer (pH 7.4, 110 mM sodium phosphate) with various concentrations of NaCl and incubated for 30 min at room temperature. Samples were centrifuged at 500×g for 5 minutes, and haemoglobin release was monitored by measuring the absorbance of supernatants at 540 nm. The absorbance obtained with 0.1% NaCl corresponded to 100% lysis and that with 1% NaCl, to 0% lysis. Peptides dissolved in PBS were added to human erythrocyte solution at several concentrations. The resulting suspension was incubated separately at 37° C. for 2 h and 24 h. Release of hemoglobin was monitored by measuring the absorbance of the suspernatant at 540 nm after centrifuging and haemolysis percentage was calculated using the calibration curve.

[8] = system: Staphylococcus aureus ATCC 29213; type: cell-based; conditions: ATCC 29213, 24 h
Experimental: as §1

[9] = system: Escherichia coli ATCC 25922; type: cell-based; conditions: ATCC 25922, 24 h
Experimental: as §1

[10] = system: Pseudomonas aeruginosa ATCC 27853; type: cell-based; conditions: ATCC 27853, 24 h
Experimental: as §1

[11] = system: Enterobacer aerogenes W03BG0067; type: cell-based; conditions: 24 h
Experimental: as §1

[12] = system: Klebsiella pneumoniae ATCC 13833; type: cell-based; conditions: ATCC 13833, 24 h
Experimental: as §1

[13] = system: Acinetobacter baumannii RUH 134; type: cell-based; conditions: RUH 134, 24 h
Experimental: as §1

[14] = system: Proteus mirabilis W03VA1017; type: cell-based; conditions: W03VA1017, 24 h
Experimental: as §1

[15] = system: Enterobacter cloacae W03AN0041; type: cell-based; conditions: W03AN0041, 24 h
Experimental: as §1

[16] = system: Serratia marcescens W03BG0003; type: cell-based; conditions: W03BG0003, 24 h
Experimental: as §1

[17] = system: Burkholderia cepacia ORB-99; type: cell-based; conditions: 24 h
Experimental: as §1

S. aureus 3851 = type: cell-based, Staphylococcus aureus; conditions: 3851, 24 h
Experimental: as §1

## CC[C@H](C)[C@H](NC(=O)[C@H](CCCNC(=N)N)NC(=O)[C@@H](N)CCCCN)C(=O)N[C@@H](CCCNC(=N)N)C(=O)N[C@H](C(=O)N[C@@H](CCCNC(=N)N)C(=O)N[C@@H](CC(C)C)C(=O)N[C@@H](CO)C(=O)N[C@@H](C)C(=O)NCCCC[C@H](NC(=O)[C@H](C)NC(=O)[C@H](CO)NC(=O)[C@H](CC(C)C)NC(=O)[C@H](CCCNC(=N)N)NC(=O)[C@@H](NC(=O)[C@H](CCCNC(=N)N)NC(=O)[C@@H](NC(=O)[C@H](CCCNC(=N)N)NC(=O)[C@@H](N)CCCCN)[C@@H](C)CC)C(C)C)C(=O)NCCCC[C@H](NC(=O)[C@H](CCCCNC(=O)[C@H](C)NC(=O)[C@H](CO)NC(=O)[C@H](CC(C)C)NC(=O)[C@H](CCCNC(=N)N)NC(=O)[C@@H](NC(=O)[C@H](CCCNC(=N)N)NC(=O)[C@@H](NC(=O)[C@H](CCCNC(=N)N)NC(=O)[C@@H](N)CCCCN)[C@@H](C)CC)C(C)C)NC(=O)[C@H](C)NC(=O)[C@H](CO)NC(=O)[C@H](CC(C)C)NC(=O)[C@H](CCCNC(=N)N)NC(=O)[C@@H](NC(=O)[C@H](CCCNC(=N)N)NC(=O)[C@@H](NC(=O)[C@H](CCCNC(=N)N)NC(=O)[C@@H](N)CCCCN)[C@@H](C)CC)C(C)C)C(=O)NCCC(=O)O)C(C)C [M35, KRIRVRLSA] (I: H-KRIRVRLSAKK[βAla]-OH / II: H-KRIRVRLSAK / III: H-KRIRVRLSA / IV: H-KRIRVRLSA; amide I:10-IV:C, I:11-II:C, II:10-III:C; N-terminus assumed)
A. baumannii RUH 875
  MIC: 3 µM (≈ 14.4 µg/mL)
A. baumannii MR157
  MIC: 3 µM (≈ 14.4 µg/mL)
E. coli W03BG0025
  MIC: 1.5 µM (≈ 7.19 µg/mL)
K pneumoniae 7086042
  MIC: 3 µM (≈ 14.4 µg/mL)
K pneumoniae FIPP-1
  MIC: 3 µM (≈ 14.4 µg/mL)
K pneumoniae C8-27
  MIC: 1.5 µM (≈ 7.19 µg/mL)
P. aeruginosa EF-OBG6-1
  MIC: 1.5 µM (≈ 7.19 µg/mL)
[1]
  MIC: 3 µM (≈ 14.4 µg/mL)
P. aeruginosa AV65
  MIC: 1.5 µM (≈ 7.19 µg/mL)
[2]
  MIC: 1.5 µM (≈ 7.19 µg/mL)
[3]
  MIC: 1.5 µM (≈ 7.19 µg/mL)
[4]
  MIC: 3 µM (≈ 14.4 µg/mL)
[5]
  MIC: 1.5 µM (≈ 7.19 µg/mL)
P. aeruginosa VR-143/97
  MIC: 1.5 µM (≈ 7.19 µg/mL)
[6]
  MIC: 1.5 µM (≈ 7.19 µg/mL)
P. aeruginosa PAO-1
  MIC: 1.5 µM (≈ 7.19 µg/mL)
[7]
  MIC: 3 µM (≈ 14.4 µg/mL)
Human erythrocytes
  Haemolysis of human red blood cells: practically negligible haemolysis grade
[8]
  MIC: 6 µM (≈ 28.8 µg/mL)
[9]
  MIC: 1.5 µM (≈ 7.19 µg/mL)
[10]
  MIC: 1.5 µM (≈ 7.19 µg/mL)
[11]
  MIC: 1.5 µM (≈ 7.19 µg/mL)
[12]
  MIC: 3 µM (≈ 14.4 µg/mL)
[13]
  MIC: 1.5 µM (≈ 7.19 µg/mL)
[14]
  MIC: >24 µM
[15]
  MIC: 1.5 µM (≈ 7.19 µg/mL)
[16]
  MIC: >24 µM
[17]
  MIC: >24 µM
S. aureus 3851
  MIC: 6 µM (≈ 28.8 µg/mL)

## CC[C@H](C)[C@H](NC(=O)[C@H](CCCCN)NC(=O)[C@@H](N)CCCNC(=N)N)C(=O)N[C@@H](CCCNC(=N)N)C(=O)N[C@H](C(=O)N[C@@H](CCCNC(=N)N)C(=O)N[C@@H](CC(C)C)C(=O)N[C@@H](CO)C(=O)N[C@@H](C)C(=O)NCCCC[C@H](NC(=O)[C@H](C)NC(=O)[C@H](CO)NC(=O)[C@H](CC(C)C)NC(=O)[C@H](CCCNC(=N)N)NC(=O)[C@@H](NC(=O)[C@H](CCCNC(=N)N)NC(=O)[C@@H](NC(=O)[C@H](CCCCN)NC(=O)[C@@H](N)CCCNC(=N)N)[C@@H](C)CC)C(C)C)C(=O)NCCCC[C@H](NC(=O)[C@H](CCCCNC(=O)[C@H](C)NC(=O)[C@H](CO)NC(=O)[C@H](CC(C)C)NC(=O)[C@H](CCCNC(=N)N)NC(=O)[C@@H](NC(=O)[C@H](CCCNC(=N)N)NC(=O)[C@@H](NC(=O)[C@H](CCCCN)NC(=O)[C@@H](N)CCCNC(=N)N)[C@@H](C)CC)C(C)C)NC(=O)[C@H](C)NC(=O)[C@H](CO)NC(=O)[C@H](CC(C)C)NC(=O)[C@H](CCCNC(=N)N)NC(=O)[C@@H](NC(=O)[C@H](CCCNC(=N)N)NC(=O)[C@@H](NC(=O)[C@H](CCCCN)NC(=O)[C@@H](N)CCCNC(=N)N)[C@@H](C)CC)C(C)C)C(=O)NCCC(=O)O)C(C)C [M36, RKIRVRLSA] (I: H-RKIRVRLSAKK[βAla]-OH / II: H-RKIRVRLSAK / III: H-RKIRVRLSA / IV: H-RKIRVRLSA; amide I:10-IV:C, I:11-II:C, II:10-III:C; N-terminus assumed)
A. baumannii RUH 875
  MIC: 3 µM (≈ 14.4 µg/mL)
A. baumannii MR157
  MIC: 3 µM (≈ 14.4 µg/mL)
E. coli W03BG0025
  MIC: 1.5 µM (≈ 7.19 µg/mL)
K pneumoniae 7086042
  MIC: 3 µM (≈ 14.4 µg/mL)
K pneumoniae FIPP-1
  MIC: 3 µM (≈ 14.4 µg/mL)
K pneumoniae C8-27
  MIC: 1.5 µM (≈ 7.19 µg/mL)
P. aeruginosa EF-OBG6-1
  MIC: 1.5 µM (≈ 7.19 µg/mL)
[1]
  MIC: 3 µM (≈ 14.4 µg/mL)
P. aeruginosa AV65
  MIC: 1.5 µM (≈ 7.19 µg/mL)
[2]
  MIC: 1.5 µM (≈ 7.19 µg/mL)
[3]
  MIC: 0.3 µM (≈ 1.44 µg/mL)
[4]
  MIC: 3 µM (≈ 14.4 µg/mL)
[5]
  MIC: 1.5 µM (≈ 7.19 µg/mL)
P. aeruginosa VR-143/97
  MIC: 1.5 µM (≈ 7.19 µg/mL)
[6]
  MIC: 1.5 µM (≈ 7.19 µg/mL)
P. aeruginosa PAO-1
  MIC: 1.5 µM (≈ 7.19 µg/mL)
[7]
  MIC: 3 µM (≈ 14.4 µg/mL)
Human erythrocytes
  Haemolysis of human red blood cells: practically negligible haemolysis grade
[8]
  MIC: 6 µM (≈ 28.8 µg/mL)
[9]
  MIC: 1.5 µM (≈ 7.19 µg/mL)
[10]
  MIC: 1.5 µM (≈ 7.19 µg/mL)
[11]
  MIC: 1.5 µM (≈ 7.19 µg/mL)
[12]
  MIC: 1.5 µM (≈ 7.19 µg/mL)
[13]
  MIC: 1.5 µM (≈ 7.19 µg/mL)
[14]
  MIC: >24 µM
[15]
  MIC: 3 µM (≈ 14.4 µg/mL)
[16]
  MIC: >24 µM
[17]
  MIC: >24 µM
S. aureus 3851
  MIC: 6 µM (≈ 28.8 µg/mL)
